Laboratory results: ChEMBL document CHEMBL6092203, “Discovery of Novel PROTAC-Based HPK1 Degraders with High Potency and Selectivity for Cancer Immunotherapy” (J Med Chem, 2024)
Activity calls are given as the source filed them. No cut-off for these calls is given here.

Tests used:
in vivo [1] = conditions: female, Sprague-Dawley, rat, po, 100 mg/kg
[2] = Clearance in rat relative to hepatic blood flow; conditions: in vivo
[3] = Tmax in male Sprague-Dawley rat at 100 mg/kg/day, po measured at day 1; type: ADME, organism-based; conditions: in vivo, time 1 day
[4] = Drug metabolism in human hepatocytes assessed as phase 2 metabolites formation at 10 uM incubated for 120 mins by UHPLC-UV/MS/MS method; type: ADME, cell-based, Hepatocyte; conditions: 2 h
[5] = biological target: Protein cereblon/Mitogen-activated protein kinase kinase kinase kinase 1 (Homo sapiens, UniProt Q92918+Q96SW2); experiment: PROTAC activity at CRBN/HPK1 in human Jurkat cells assessed as HPK1 degradation at 1 uM pretreated with lenalidomide for 4 hrs followed by compound addition and measured after 24 hrs by Western blotting analysis; type: cell-based
[6] = Drug absorption in mouse at 10 to 100 mg/kg, po; type: ADME, organism-based; conditions: in vivo, dose 10-100 mg/kg
in vivo [7] = conditions: female, Sprague-Dawley, rat, po, 100 mg/kg; remark: listed apart in the source
MC-38 [8] = experiment: Synergistic antitumor activity against mouse MC38 cells implanted in C57BL/6J mouse assessed as tumor weight inhibition rate at 1 mg/kg, po bid measured after 4 weeks in presence of 5 mg/kg anti-PD1 and measured twice a week; type: functional; set-up: scale not given: the % may be the effect or the level left
[9] = AUC(0 to 24 hrs) in male Sprague-Dawley rat at 100 mg/kg/day, po measured at day 1; type: ADME, organism-based; conditions: in vivo, time 1 day
[10] = Tmax in male Sprague-Dawley rat at 2 mg/kg/day, po measured at day 1; type: ADME, organism-based; conditions: in vivo, time 1 day
[11] = Metabolic stability in monkey liver microsomes assessed as intrinsic clearance at 1 uM incubated for 45 mins by LC-MS/MS method; type: ADME, Macaca mulatta, Microsome; conditions: rhesus monkey, read-out: CLH
[12] = AUC(0 to 24 hrs) in female Sprague-Dawley rat at 2 mg/kg/day, po measured at day 1; type: ADME, organism-based; conditions: in vivo, time 1 day
[13] = AUC(0 to 24 hrs) in male Sprague-Dawley rat at 2 mg/kg/day, po measured at day 1; type: ADME, organism-based; conditions: in vivo, time 1 day
in vivo [14] = conditions: male, Sprague-Dawley, rat, po, 30 mg/kg
[15] = Drug metabolism in monkey hepatocytes assessed as phase 2 metabolites formation at 10 uM incubated for 120 mins by UHPLC-UV/MS/MS method; type: ADME, cell-based, Macaca mulatta, Hepatocyte; conditions: rhesus monkey, 2 h
[16] = Drug distribution in rat thyroid gland measured after 0.5 to 6 hrs; type: ADME, tissue-based; conditions: in vivo, time 0.5-6 hrs
[17] = AUC(0 to 24 hrs) in female Sprague-Dawley rat at 30 mg/kg/day, po measured at day 1; type: ADME, organism-based; conditions: in vivo, time 1 day
Cytochrome P450 2B6 = biological target: T1, Cytochrome P450 2B6 (Homo sapiens, UniProt P20813); experiment: Inhibition of CYP2B6 in human liver microsomes using bupropion as substrate in presence of NADPH; type: ADME, Microsome
T1 sequence (P20813 whole entry): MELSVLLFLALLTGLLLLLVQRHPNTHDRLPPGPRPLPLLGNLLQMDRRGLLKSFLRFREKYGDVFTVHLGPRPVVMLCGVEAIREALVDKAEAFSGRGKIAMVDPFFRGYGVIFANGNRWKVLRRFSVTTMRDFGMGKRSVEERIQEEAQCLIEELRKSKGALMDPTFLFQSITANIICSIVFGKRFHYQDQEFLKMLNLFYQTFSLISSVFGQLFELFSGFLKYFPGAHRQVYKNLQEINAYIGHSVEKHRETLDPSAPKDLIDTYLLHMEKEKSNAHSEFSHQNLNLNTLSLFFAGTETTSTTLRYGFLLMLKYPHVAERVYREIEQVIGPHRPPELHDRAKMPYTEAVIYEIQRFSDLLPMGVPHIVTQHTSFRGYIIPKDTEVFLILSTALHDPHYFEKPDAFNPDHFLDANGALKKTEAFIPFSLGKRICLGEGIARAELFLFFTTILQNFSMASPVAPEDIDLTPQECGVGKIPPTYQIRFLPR

in vivo [18] = conditions: male, Sprague-Dawley, rat, po, 30 mg/kg; remark: listed apart in the source
[19] = Toxicity in Sprague-Dawley rat assessed as no observable adverse effect level exposure measured after 14 days; conditions: in vivo, 336 h, time 14 day
Jurkat = experiment: Effect on SLP76 total protein expression in human Jurkat cells at 1 to 2000 nM incubated for 24 hrs by Western blotting assay; type: functional, cell-based; conditions: dose 1-2000 nM
[20] = Plasma protein binding in rat at 10 uM incubated for 6 hrs by equilibrium dialysis based LC-MS/MS method; type: ADME, cell-free; conditions: read-out: PPB (converted)
MC-38 [21] = experiment: Synergistic antitumor activity against mouse MC38 cells implanted in C57BL/6J mouse assessed as tumor weight inhibition rate at 100 mg/kg, po QD measured after 4 weeks in presence of 5 mg/kg anti-PD1 and measured twice a week; type: functional; set-up: scale not given: the % may be the effect or the level left
[22] = AUC(0 to 24 hrs) in female Sprague-Dawley rat at 100 mg/kg/day, po measured at day 1; type: ADME, organism-based; conditions: in vivo, time 1 day
[23] = Drug distribution in rat heart measured after 0.5 to 6 hrs; type: ADME, tissue-based; conditions: in vivo, time 0.5-6 hrs
[24] = AUCinfinity in C57BL/6J mouse at 2 mg/kg, iv measured upto 24 hrs by LC-MS analysis; type: ADME, organism-based; conditions: in vivo
[25] = Drug distribution in rat gastrointestinal tract measured after 0.5 to 6 hrs; type: ADME, tissue-based; conditions: in vivo, time 0.5-6 hrs
[26] = Toxicity in Sprague-Dawley rat assessed as efficacy dose measured after 14 days; conditions: in vivo, 336 h, time 14 day
in vivo [27] = conditions: female, Sprague-Dawley, rat, po, 30 mg/kg
[28] = Drug absorption in rat at 10 to 100 mg/kg, po; type: ADME, organism-based; conditions: in vivo, dose 10-100 mg/kg
Cytochrome P450 1A2 = biological target: T2, Cytochrome P450 1A2 (Homo sapiens, UniProt P05177); experiment: Inhibition of CYP1A2 in human liver microsomes using phenacetin as substrate in presence of NADPH; type: ADME, Microsome
T2 sequence (P05177 whole entry): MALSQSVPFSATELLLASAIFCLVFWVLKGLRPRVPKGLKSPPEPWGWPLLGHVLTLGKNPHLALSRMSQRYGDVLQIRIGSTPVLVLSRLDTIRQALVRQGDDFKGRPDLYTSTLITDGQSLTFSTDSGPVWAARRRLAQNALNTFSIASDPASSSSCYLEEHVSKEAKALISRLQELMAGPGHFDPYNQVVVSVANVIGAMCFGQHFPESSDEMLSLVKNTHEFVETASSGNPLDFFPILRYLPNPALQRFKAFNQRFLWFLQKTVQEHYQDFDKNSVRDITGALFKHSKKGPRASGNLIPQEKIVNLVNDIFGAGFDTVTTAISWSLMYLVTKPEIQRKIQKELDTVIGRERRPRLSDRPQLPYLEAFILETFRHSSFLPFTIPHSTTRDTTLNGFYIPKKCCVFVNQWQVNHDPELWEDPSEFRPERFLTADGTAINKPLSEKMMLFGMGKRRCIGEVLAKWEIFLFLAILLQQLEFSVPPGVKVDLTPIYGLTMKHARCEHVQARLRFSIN

MC-38 [29] = experiment: Antitumor activity against mouse MC38 cells implanted in C57BL/6J mouse assessed as reduction in tumor volume at 0.1 mg/kg, po BID administered for 3 to 4 weeks (reference value: 1549.22 +/- 217.92 mm3); type: functional; conditions: time 3-4 weeks

Protein cereblon/Mitogen-activated protein kinase kinase kinase kinase 1, sequence (Q92918 whole entry, looked up): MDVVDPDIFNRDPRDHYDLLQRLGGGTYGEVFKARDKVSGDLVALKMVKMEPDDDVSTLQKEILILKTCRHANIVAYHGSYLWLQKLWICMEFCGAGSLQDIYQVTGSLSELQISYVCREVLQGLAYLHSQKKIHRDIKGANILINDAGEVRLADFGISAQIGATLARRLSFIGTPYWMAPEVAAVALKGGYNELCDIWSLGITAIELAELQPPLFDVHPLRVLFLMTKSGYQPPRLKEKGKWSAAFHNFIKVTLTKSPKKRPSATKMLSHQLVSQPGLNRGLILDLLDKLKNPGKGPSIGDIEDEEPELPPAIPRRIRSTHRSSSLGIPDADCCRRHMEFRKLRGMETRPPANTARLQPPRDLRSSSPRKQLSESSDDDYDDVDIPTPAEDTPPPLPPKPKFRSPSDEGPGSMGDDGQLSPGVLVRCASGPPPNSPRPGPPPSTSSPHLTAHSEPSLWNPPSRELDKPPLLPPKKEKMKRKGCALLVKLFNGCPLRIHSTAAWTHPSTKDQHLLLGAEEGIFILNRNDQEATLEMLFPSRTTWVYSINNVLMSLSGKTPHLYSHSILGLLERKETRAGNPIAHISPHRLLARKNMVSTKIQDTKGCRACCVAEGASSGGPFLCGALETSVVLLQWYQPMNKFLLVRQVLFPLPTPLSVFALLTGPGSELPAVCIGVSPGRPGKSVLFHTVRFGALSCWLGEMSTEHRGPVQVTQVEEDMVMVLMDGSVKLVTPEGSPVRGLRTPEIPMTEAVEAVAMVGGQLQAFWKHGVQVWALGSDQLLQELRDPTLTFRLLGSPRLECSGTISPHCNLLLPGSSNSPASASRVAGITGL
Protein cereblon/Mitogen-activated protein kinase kinase kinase kinase 1, sequence (Q96SW2 whole entry, looked up): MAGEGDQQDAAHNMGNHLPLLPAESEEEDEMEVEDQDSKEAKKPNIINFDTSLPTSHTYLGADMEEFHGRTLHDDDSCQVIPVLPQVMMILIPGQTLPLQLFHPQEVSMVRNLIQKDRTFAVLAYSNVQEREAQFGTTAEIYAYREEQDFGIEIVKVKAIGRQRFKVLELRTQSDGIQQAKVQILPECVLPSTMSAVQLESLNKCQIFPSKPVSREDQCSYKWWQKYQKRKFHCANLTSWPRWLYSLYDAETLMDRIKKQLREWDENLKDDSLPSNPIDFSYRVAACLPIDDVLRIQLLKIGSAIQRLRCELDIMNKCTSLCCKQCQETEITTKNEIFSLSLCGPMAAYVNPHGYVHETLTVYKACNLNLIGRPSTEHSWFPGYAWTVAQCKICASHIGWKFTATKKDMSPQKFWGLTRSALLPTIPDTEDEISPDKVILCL

AUC at 336 h (in vivo [1]): 121000 ng·h/mL
clearance [2]: 16.6 mL/min/kg
Tmax [3]: 7.5 h
Drug metabolism [4]: metabolite_detected
Activity [5]: inactive
Drug absorption [6]: Active
Cmax at 336 h (in vivo [7]): 8590 ng/mL
AUC(0-t) at 24 h [9]: 107000 ng·h/mL
Tmax [10]: 8.67 h
microsomal CLint at 1 µM [11]: 38 µL/min/mg
AUC(0-t) at 24 h [12]: 539 ng·h/mL
AUC(0-t) at 24 h [13]: 1040 ng·h/mL
Cmax at 336 h (in vivo [14]): 3200 ng/mL
Drug metabolism [15]: metabolite_detected
Drug uptake [16]: Active
AUC(0-t) at 24 h [17]: 51300 ng·h/mL
IC50 (Cytochrome P450 2B6): > 10 µM
Cmax at 24 h (in vivo [18]): 3560 ng/mL
fraction unbound at 6 h, 10 µM [20]: 0.0008
AUC(0-t) at 24 h [22]: 110000 ng·h/mL
Drug uptake [23]: Active
AUC(0-inf) [24]: 5560 ng·h/mL
Drug uptake [25]: Active
AUC at 336 h (in vivo [27]): 46000 ng·h/mL
Drug absorption [28]: Active
IC50 (Cytochrome P450 1A2): > 10 µM
SMILES: O=C1CCN(c2cc(C(=O)N3CCC(CC4CCN(c5ccc(-c6cnc7[nH]cc(-c8cnn(CC(F)(F)F)c8)c7n6)cn5)CC4)CC3)ccc2Cl)C(=O)N1
Activity (MC-38 [8]): 76.61%
NOAEL [19]: 136000 ng·h/mL
Activity (Jurkat): inactive
Activity (MC-38 [21]): 83.04%
Activity [26]: 0.8 mg/kg/day
Activity (MC-38 [29]): 1107.91 mm3
